Non-standard residues stand in square brackets, D forms with d. Residues, ends and D or L forms follow the SMILES beside them. Nspe = C[C@H](NCC(=O)O)c1ccccc1; Nlys = NCCCCNCC(=O)O
Assays:
[1] = Analytical RP-HPLC elution as relative measure of molecular hydrophobicity; type: physicochemical; details: percentage of acetonitrile at elution, analytic RP-HPLC, C18 column, linear water/acetonitrile (0.1% trifluoroacetic acid) gradient 5%-95% acetonitrile over 30 min
Excerpt: Peptoids were synthesized using an ABI 433A peptide synthesizer (Applied Biosystems, Inc.) on Rink amide MBHA resin (EMD Biosciences, Gibbstown, NJ) using the submonomer protocol, [24]. Briefly, the amine on the nascent chain is bromoacetylated or chloroacetylated followed by SN2 displacement of bromide or chloride by a primary amine to form the side chain. Resin-bound peptoids were then exposed to a mixture of trifluoroacetic acid (TFA): triisopropylsilane: water (95∶2.5∶2.5, volume ratio) for 10 minutes to cleave peptoids from the resin. Crude peptoids were purified by reversed-phase high performance liquid chromatography (RP-HPLC) (Waters Corporation) using a C18 column and a linear acetonitrile/water gradient. A final purity >95% as measured by analytical RP-HPLC (Waters Corporation) was achieved, and the identity of each peptoid was confirmed using electrospray ionization mass spectrometry (ESI/MS). Pexiganan was synthesized by standard Fmoc chemistry on an ABI 433A peptide synthesizer ([…]). Unless indicated otherwise, all reagents were purchased from Sigma Aldrich (St. Louis, MO). Among the submonomers used, Nspe was derived from (S)-N-(1-phenylethyl)amine; Npm from benzylamine ([…]); NHis from histamine (2-[4-imidazolyl]ethylamine); NLeu from isobutylamine; NLys from N-tert-butoxycarbonyl-1,4-butanediamine (CNH Technologies, MA). Guanidinylation of NLys was carried out according to the reported procedure. When NHis was used in the peptoid sequence, chloroacetic acid was used. 5(6)-Carboxyfluorescein was used to label the N-terminus of peptoid 1 [28].
Peptoids were utilized herein as a peptidomimetic scaffold to capture the cationic, amphipathic nature of anticancer peptides, as well as to improve molecular stability and to increase chemical diversity. The design of anticancer peptoids were derived from previous antimicrobial peptoids and were further optimized hererin to improve the activity and selectivity of peptoids against anionic membranes, [24], [25]. […] Several novel variants were designed based on peptoid 1 but with different charges, amphipathicity, length, and helicity to change their activity or selectivity. The sequences of these variants, the solvent composition at RP-HPLC elution as a relative measure of molecular hydrophobicity, molecular net charges and their charge-to-length ratio are summarized in Table 1. […] Pexiganan, a clinically-relevant peptide analog of magainin 2 which was developed for topical treatment for diabetic foot infection, and LL-37, the only known human cathelicidin which is a non-selective antimicrobial peptide, were also tested for comparison.

OVCAR3 (ovarian cancer) = experiment: MTS cell viability assay, OVCAR3; type: cell-based; details: 72 h
Procedure: MCF-7, MCF-7/TxT50 and OVCAR-3 (available in ATCC) were kindly provided by Professor Branimir Sikic's lab at Stanford University, and were cultured in McCoy's 5A media (GIBCO) with 10% FBS and antibiotics. Primary dermal fibroblasts were gifts from Lifeline Cell Technology and were cultured <6 passages according to the protocol Lifeline provides. All the cells were cultured in cell incubators (Thermo Scientific) at 37°C with 5% CO2.
This assay is a colorimetric method for determining the number of viable cells in proliferation. Aliquots of 100 µl media containing 1×10^4 cells were distributed into each well of a 96-well plate (BD Falcon). The following day, when cell density reaches about ∼40% confluency, the cell media were removed and replaced with serial dilutions of peptoid stocks in culturing media. For peptoid dilutions, peptoid stocks were initially diluted in media at 100 µM and then diluted by half in series using a multichannel pipette, and maintained in 100 µl media for each concentration with triple repeats. After peptoid solutions were transferred onto cells in 96-well plates, cells were incubated at 37°C for certain time periods. Then 20 µl of the CellTiter 96 Aqueous Non-Radioactive cell proliferation assay (Promega) reagent which contains a tetrazolium compound, [3-(4,5-dimethylthiazol-2-yl)-5-(3-carboxymethoxyphenyl)-2-(4-sulfophenyl)-2H-tetrazolium, inner salt; MTS(a)], was added to each well and cells were further incubated for 2 h to metabolize. The absorbance of formazan products were measured at 490 nm in a microplate reader (Molecular Devices). Percentage of cell viability = (A -A testblank)/(A control -A blank)×100, where A is the absorbance of the test well and A control the average absorbance of wells with cells not treated with peptoids. A testblank (media, MTS, and diluted peptoids) and A blank (media and MTS) were background absorbances measured in the absence of cells.
The activity and selectivity of these peptoids against cancer cells were evaluated in vitro. Their cytotoxicity was tested in three cancer cell lines, MCF-7 (human breast cancer), LNCaP (human prostate cancer), and OVCAR-3 (human ovarian cancer). To estimate the selectivity of these peptoids in vitro, hemolytic activities of some peptoids were cited from previously published work (Table 2 **column), and the MRC-5 cell line (human fibroblasts derived from fetal lung tissues) and primary dermal fibroblasts were also tested as normal cell controls. Briefly, cells were treated with peptoids diluted in culturing media for certain time periods, and then cell viability was measured via MTS assays.

human red blood cells = details: concentration causing 10% hemolysis of human red blood cells; cited from earlier work
Excerpt: Table 2 Peptoid Cytotoxicity in cancer cell lines and control cells. | column: HC10 (µM) ** || The chain length is believed to influence not only the activity but also modes of action of cationic, amphipathic peptides, [34]. […] Thus we limited the chain length of peptoids to 13 residues at most, and studied 1 9mer which has the same charge-to-length ratio (CTLR) as peptoid ...

For C[C@@H](c1ccccc1)N(CC(N)=O)C(=O)CN(C(=O)CN(CCCCN)C(=O)CN(C(=O)CN(C(=O)CN(CCCCN)C(=O)CN(C(=O)CN(C(=O)CN(CCCCN)C(=O)CN(C(=O)CN(C(=O)CNCCCCN)[C@@H](C)c1ccccc1)[C@@H](C)c1ccccc1)[C@@H](C)c1ccccc1)[C@@H](C)c1ccccc1)[C@@H](C)c1ccccc1)[C@@H](C)c1ccccc1)[C@@H](C)c1ccccc1 [Peptoid 1, H-(NLys-Nspe-Nspe)4-NH2] (H-[Nlys][Nspe][Nspe][Nlys][Nspe][Nspe][Nlys][Nspe][Nspe][Nlys][Nspe][Nspe]-NH2), the HPLC elution [1] is listed as 65.1 % ACN, the “LC50 OVCAR3 (ovarian cancer)” value (OVCAR3 (ovarian cancer)) is listed as 6 µM and the HC10 (human red blood cells) is listed as 21 µM.

— article PMC3938723, “Learning from Host-Defense Peptides: Cationic, Amphipathic Peptoids with Potent Anticancer Activity” (PLoS ONE, 2014)
